This test has as its target Estrogen receptor (Rattus norvegicus) (UniProt P06211+Q62986). The experiment in a line: Binding affinity for rat uterine estrogen receptor relative to estradiol. The class given is protein assay.
In turn, `Oc1ccc2c(c1)CC(c1ccccc1)=C2c1ccccc1` gave an RBA of 8.9%.

Regarding `O=C1C(c2ccc(O)cc2)=C(c2ccc(O)cc2)c2ccc(O)cc21`, the RBA was determined as 23%.

In turn, `Oc1ccc2c(c1)Cc1c-2c2ccccc2c2ccccc12` had an RBA of 0.01%.

Compound `Oc1ccc(C2=C(c3ccc(O)cc3)c3ccc(O)cc3C2)cc1` registered an RBA of 15%.

The compound `Oc1ccc(C2=C(c3ccc(O)cc3)c3ccc(O)cc3CC2)cc1` registered an RBA of 140%.

Regarding `O=C1C(c2ccccc2)=C(c2ccccc2)c2ccc(O)cc21`, the RBA was 59%.

The record behind these values is ChEMBL document CHEMBL1124225, “2,3-Diarylindenes and 2,3-diarylindenones: synthesis, molecular structure, photochemistry, estrogen receptor binding affinity, and comparisons with related triarylethylenes” (J Med Chem, 1988).
